Tests used:
human PPARγ = target: T1, human PPARγ (Homo sapiens, UniProt P37231); experiment: PPARγ luciferase reporter gene transactivation in HEK-293 cells; details: PPARγ-driven luciferase reporter assay, 18 h
T1 sequence (P37231 1-477 isoform P37231-2): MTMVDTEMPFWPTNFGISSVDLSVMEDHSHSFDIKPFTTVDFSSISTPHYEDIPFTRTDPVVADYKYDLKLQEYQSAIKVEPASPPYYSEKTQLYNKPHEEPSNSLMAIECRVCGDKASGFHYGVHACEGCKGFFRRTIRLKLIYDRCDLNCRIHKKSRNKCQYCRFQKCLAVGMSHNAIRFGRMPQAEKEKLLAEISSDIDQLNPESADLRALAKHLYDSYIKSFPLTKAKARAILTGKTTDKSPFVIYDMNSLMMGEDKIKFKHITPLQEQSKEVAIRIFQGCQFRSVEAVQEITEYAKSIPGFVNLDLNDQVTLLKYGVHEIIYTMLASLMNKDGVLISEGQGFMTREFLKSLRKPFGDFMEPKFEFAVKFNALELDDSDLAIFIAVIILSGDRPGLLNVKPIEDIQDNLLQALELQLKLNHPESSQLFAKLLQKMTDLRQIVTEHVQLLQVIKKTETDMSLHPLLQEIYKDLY
Description: For evaluation of PPARγ activation the test compounds were first dissolved in DMSO, divided into aliquots, and frozen at −20 °C until used. In all experiments, DMSO was applied as solvent control, and the final concentration of DMSO was always kept at ≤0.1%. The PPAR luciferase reporter plasmid (tk-PPREx3-luc) was a kind gift from Prof. Ronald M. Evans (Howard Hughes Medical Institute, La Jolla, CA, USA), the plasmid encoding enhanced green fluorescent protein (pEGFP-N1) was supplied by Clontech (Mountain View, CA, USA), and the plasmid encoding human PPARγ (pSG5-PL-hPPAR-γ1) was kindly supplied by Prof. Walter Wahli and Prof. Beatrice Desvergne (Center for Integrative Genomics, University of Lausanne, Switzerland).
The PPARγ luciferase reporter gene assay was performed as previously described.[27] Briefly, HEK-293 cells (ATCC, Manassas, VA, USA) were grown in DMEM with 2 mM glutamine, 10% FBS, 100 U/mL benzylpenicillin, and 100 μg/mL streptomycin. Cells were grown in 10 cm dishes (6 × 10^6 cells/dish) for 18 h and then transfected by the calcium phosphate precipitation method with 4 μg of plasmid encoding human PPARγ (pSG5-PL-hPPAR-γ1), 4 μg of reporter plasmid (tk-PPREx3-luc), and 2 μg of pEGFP-N1 as control for internal normalization.[28] After 6 h, the cells were transferred to 96-well plates (5 × 10^4 cells/well) in DMEM without phenol red supplemented with charcoal-stripped FBS, glutamine, and antibiotics. The cells were treated with different concentrations of the indicated compounds and incubated for 18 h. Cells were then lysed, and the luminescence of the firefly luciferase and the fluorescence of EGFP were quantified with a GeniosPro microplate reader (Tecan, Grödig, Austria). The luminescence was finally normalized to the EGFP-derived fluorescence from each well to account for differences in transfection efficiency or cell number.
Nonlinear regression (with sigmoidal dose response) was used to calculate the EC50 values and maximal fold activation.

[1] = test system: NO production in LPS/IFNγ-stimulated RAW 264.7 macrophages; experiment: Inhibition of NO production in stimulated RAW 264.7 macrophages (Griess assay); type: cell-based; details: Mus musculus, RAW264.7, 16 h incubation
Description: RAW 264.7 macrophages were stimulated with lipopolysaccharides (LPS) and interferon-γ (IFNγ) for induction of iNOS gene expression. The effects on NO production were determined by photometric quantification of nitrite accumulation in cell culture supernatants using the Griess assay compared with a sodium nitrite standard curve after 16 h of incubation with the respective sample as described by Baer et al. with slight modifications.[29],[30] Activity is referred to nitrite accumulation of cells treated with LPS/IFN-γ/DMSO (final concentration of 0.1% DMSO serves as solvent control). Test compounds were first dissolved in DMSO and then diluted with PBS to obtain respective concentrations. L-NMMA (N-monomethyl-L-arginine), a known nonselective inhibitor of all NOS isoforms, was used as a positive control. IC50 determination was performed in eight concentrations, each in at least three independent experiments, every time in duplicate.
IC50 values for effects on NO production were calculated with the SigmaPlot program package employing the four-parameter logistic regression model. Statistical differences were evaluated using one-way ANOVA. Differences with a p value < 0.05 were considered significant.

[2] = Stability on exposure to heat or sunlight (observed color change); type: physicochemical; details: elevated temperatures (45 °C) or direct sunlight at ambient temperature for an extended time; visible color change

| Compound | EC50 (human PPARγ) [nM] | maximal fold activation (human PPARγ) | IC50 [1] [µM] | stability [2] |
| --- | --- | --- | --- | --- |
| C=C[C@H](C#CC#C[C@@H](O)/C=C\CCCCCCC)O[C@]1(C)CCC[C@]2(C)CC[C@@H](C(C)(C)O)C[C@H]21 [compound 1, Notoether A] | 1900 | 1.6 |  |  |
| C=C[C@@H](O)C#CC#C[C@H](/C=C\CCCCCCC)O[C@]1(C)CCC[C@]2(C)CC[C@@H](C(C)(C)O)C[C@H]21 [compound 2, Notoether B] | 1700 | 2.0 |  |  |
| C=C[C@H](C#CC#C[C@@H](O)/C=C\CCCCCCC)O[C@]1(C)CC[C@@H](O)[C@]2(C)CC[C@@H](C(C)C)[C@@H](O)[C@H]21 [compound 3, Notoether C] | 2000 | 1.6 |  |  |
| C=C[C@@H](O)C#CC#C[C@H](/C=C\CCCCCCC)OC(=O)/C=C/c1ccc(O)c(OC)c1 [compound 9, Notoincisol A] | 2300 |  | 14.6 ± 0.7 | unstable |
| C=C[C@H]1OCc2cc3cc(OC)c(O)cc3c(C#C[C@@H](O)/C=C\CCCCCCC)c21 [compound 10, Notoincisol B] | 1700 | 2.3 |  |  |
